From patent US20190322676A1, “CERAMIDE GALACTOSYLTRANSFERASE INHIBITORS FOR THE TREATMENT OF DISEASE” (BioMarin Pharmaceutical Inc., priority 2016, published 2019)
pIC50: −log10 of the molar value. Structures can show the parent of a compound that is named as a salt.

These molecules were tested against T1, human CGT (ceramide galactosyltransferase), CHO/CGT lysate (Homo sapiens, UniProt Q16880) (assay: CGT enzyme assay, RapidFire/MS/MS readout (Table 1 ranges with one asterisk *)). Conditions: RapidFire method (range with one asterisk *).
T1 construct: Full-length human CGT cDNA was cloned into the BamH1/Xho1 site of pcDNA3.1 (+); expressed in transfected cells; host or cells: Chinese hamster ovary (CHO) cells; lysate prepared with M-PER
T1 sequence (Q16880 21-541): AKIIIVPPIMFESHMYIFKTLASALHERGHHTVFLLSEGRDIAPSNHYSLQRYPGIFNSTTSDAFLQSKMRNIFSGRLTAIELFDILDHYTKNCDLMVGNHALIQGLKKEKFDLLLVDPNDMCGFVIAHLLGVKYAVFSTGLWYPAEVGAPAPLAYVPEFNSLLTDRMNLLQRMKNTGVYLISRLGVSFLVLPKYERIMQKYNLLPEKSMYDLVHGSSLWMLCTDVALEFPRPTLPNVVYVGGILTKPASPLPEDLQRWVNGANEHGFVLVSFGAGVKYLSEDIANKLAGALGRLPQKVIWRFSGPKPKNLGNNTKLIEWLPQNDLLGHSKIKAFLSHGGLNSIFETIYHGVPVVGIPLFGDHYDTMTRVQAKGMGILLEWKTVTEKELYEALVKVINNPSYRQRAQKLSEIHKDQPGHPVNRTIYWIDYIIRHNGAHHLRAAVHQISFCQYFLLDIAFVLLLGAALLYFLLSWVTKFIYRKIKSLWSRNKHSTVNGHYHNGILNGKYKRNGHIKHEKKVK
Format: biochemical
Description: Full-length human CGT cDNA was cloned into the BamH1/Xho1 site of pcDNA3.1 (+) mammalian expression vector (V90-20, Invitrogen, Carlsbad, Calif.) and the plasmid was transfected into Chinese hamster ovary (CHO) cells. Lysate was prepared using M-PER (Mammalian Protein Extraction Reagent, ThermoFisher Scientific, Grand Island, N.Y.) in the presence of a protease inhibitor cocktail (P8340, Sigma, Saint Louis, Mo.). Each 100 mm dish (100% confluent, approximately 1×10^7 cells) was lysed with 250 μL of M-PER containing protease inhibitors. Protein concentration was determined using a Pierce BCA protein assay kit (ThermoFisher Scientific). Four micrograms of CHO/CGT lysate was incubated with various concentrations of a compound (0.001 μM-50 μM) in 10 mM HEPES (pH 7.2) containing 35 μM dioleoylphosphatidylcholine, 5 mM MgCl2, 5 mM MnCl2, 1% BSA, 15 mM KCl, 1 mM EGTA, 8 mM CHAPS, 10 μM C6-NBD-dihydro-ceramide and 17.5 μM UDP-galactose in a final reaction volume of 20 μL at 37° C. for 1 hour. The final concentration of DMSO was 0.5% in both compound-treated and mock-treated samples. Tween 80 (0.01%) was optionally added to the reaction mixture to help solubilize the compounds. Each individual reaction was diluted with 80 μL of methanol:acetronitrile (1:3) containing 5 μM N-docdecanoyl-NBD-galactosylceramide (internal standard) to stop the reaction. 200 μL H2O:acetonitile (1:1) was added to precipitate the protein. After sufficient mixing, the plates were centrifuged at 2469 g for 38 minutes, 200 μL of supernatant was transferred to a LC/MS 96-deep well plate and a second spin was performed at 2469 g for 10 minutes. The final supernatant was injected in triplicate for RapidFire/MS/MS analysis.
Quantitative Analysis Using the RapidFire/MS/MS Method:
The quantitative analysis of C6-NBD-dihydro-ceramide and C6-NBD-dihydro-galactosylceramide was performed on a Rapid Fire 360 high-throughput mass spectrometry system (Agilent Technologies, Palo Alto, Calif.) coupled with a API4000^+ triple quadrupole mass spectrometer (Applied Biosystems, Concord, Ontario, Canada). RapidFire software packages, including RapidFire Control panel, RapidFire UI and RapidFire Integrator (Agilent Technologies), were used to control the RapidFire instrument and to process data. Analyst 1.6.2 software packages (Applied Biosystems) were used to control the MS system and acquire MS data. […] of sample was loaded on a micro-scale C4 solid-phase extraction (SPE) cartridge (Agilent Technologies) and salts were removed using water supplemented with 0.1% formic acid at the flow rate of 1.5 mL/min for 3 sec. C6-NBD-dihydro-ceramide and C6-NBD-dihydro-galactosylceramide were co-eluted into the mass spectrometer using acetonitrile containing 0.1% formic acid at the flow rate of 1.0 mL/min for 3 sec. The total cycle time of one injection was 8 secs. The MS/MS detection was performed in ESI negative mode. The mass transition of C6-NBD-dihydro-galactosylceramide was m/z 752.6→678.6 using a −40 V collision energy, the mass transition of C6-NBD-dihydro-ceramide was m/z 590.6→115.8 using a −40 V collision energy and the mass transition of N-docdecanoyl-NBD-galactosylceramide was m/z 820.9→746.3 using a −45 V collision energy.
The C6-NBD-dihydro-galactosylceramide reading was normalized first by dividing the peak area of C6-NBD-dihydro-galactosylceramide by the peak area of the internal standard, N-docdecanoyl-NBD-galactosylceramide. IC50 values (see Table 1, where data ranges with one asterix (*) correspond to analysis using the RapidFire/MS/MS method, and data ranges with two asterixes (**) correspond to analysis using the RapidFire/MS/MS method with 0.01% Tween added) were generated from sigmoidal dose-response curves (variable slope) with GraphPad Prism software (GraphPad Software, Inc., San Diego, Calif.) using the normalized peak areas of C6-NBD-dihydro-galactosylceramide or the percent inhibition of C6-NBD-dihydro-galactosylceramide accumulation relative to DMSO control. […]

Q: With `NC1CC2CCC(C1)N2C(=O)[C@H](NS(=O)(=O)c1ccc(OCC2CCCCC2)cc1)C(F)(F)c1ccc(-c2ccccc2)cc1` (stereo partly drawn) [Compound 35-2, N-((2S)-1-([1,1′-biphenyl]-4-yl)-3-(3-amino-8-azabicyclo[3.2.1]octan-8-yl)-1,1-difluoro-3-oxopropan-2-yl)-4-(cyclohexylmethoxy) benzenesulfonamide trifluoroacetate] as the molecule, how does the pIC50 read?
A: 4.52 to 5.00

Q: How did the pIC50 turn out when `NC1CC2CCC(C1)N2C(=O)[C@@H](NS(=O)(=O)c1ccc2cc(OC3CCCC3)ccc2c1)C(F)(F)c1ccc(-c2ccccc2)cc1` (stereo partly drawn) [Compound 36-1, N-((2R)-1-([1,1′-biphenyl]-4-yl)-3-(3-amino-8-azabicyclo[3.2.1]octan-8-yl)-1,1-difluoro-3-oxopropan-2-yl)-6-(cyclopentyloxy)naphthalene-2-sulfonamide trifluoroacetate] was run?
A: > 6.00

Q: `NC1CC2CCC(C1)N2C(=O)[C@H](NS(=O)(=O)c1ccc2cc(OC3CCCC3)ccc2c1)C(F)(F)c1ccc(-c2ccccc2)cc1` (stereo partly drawn) [Compound 36-2, N-((2S)-1-([1,1′-biphenyl]-4-yl)-3-(3-amino-8-azabicyclo[3.2.1]octan-8-yl)-1,1-difluoro-3-oxopropan-2-yl)-6-(cyclopentyloxy)naphthalene-2-sulfonamide trifluoroacetate] was tested. Which pIC50 did it give?
A: 5.00 to 6.00

Q: How did the pIC50 turn out when `CN([C@H](C(=O)N1C2CCC1CC(N)C2)C(F)(F)c1ccc(Br)cc1)S(=O)(=O)c1ccc2cc(OC3CCCCC3)ccc2c1` (stereo partly drawn) [Compound 37-1, N-((2R)-3-(3-amino-8-azabicyclo[3.2.1]octan-8-yl)-1-(4-bromophenyl)-1,1-difluoro-3-oxopropan-2-yl)-6-(cyclohexyloxy)-N-methylnaphthalene-2-sulfonamide trifluoroacetate] was run?
A: > 6.00

Q: How did the pIC50 turn out when `CN([C@@H](C(=O)N1C2CCC1CC(N)C2)C(F)(F)c1ccc(Br)cc1)S(=O)(=O)c1ccc2cc(OC3CCCCC3)ccc2c1` (stereo partly drawn) [Compound 37-2, N-((2S)-3-(3-amino-8-azabicyclo[3.2.1]octan-8-yl)-1-(4-bromophenyl)-1,1-difluoro-3-oxopropan-2-yl)-6-(cyclohexyloxy)-N-methylnaphthalene-2-sulfonamide trifluoroacetate] was run?
A: 4.00 to 4.52

Q: How did the pIC50 turn out when `NC1CC2CCC(C1)N2C(=O)[C@@H](NS(=O)(=O)c1ccc2cc(OC3CCCC3)ccc2c1)C(F)(F)c1ccc2cc(Br)ccc2c1` (stereo partly drawn) [Compound 38-1, N-((2R)-3-(3-amino-8-azabicyclo[3.2.1]octan-8-yl)-1-(6-bromonaphthalen-2-yl)-1,1-difluoro-3-oxopropan-2-yl)-6-(cyclopentyloxy) naphthalene-2-sulfonamide trifluoroacetate] was run?
A: 5.00 to 6.00

Q: `NC1CC2CCC(C1)N2C(=O)[C@H](NS(=O)(=O)c1ccc2cc(OC3CCCC3)ccc2c1)C(F)(F)c1ccc2cc(Br)ccc2c1` (stereo partly drawn) [Compound 38-2, N-((2S)-3-(3-amino-8-azabicyclo[3.2.1]octan-8-yl)-1-(6-bromonaphthalen-2-yl)-1,1-difluoro-3-oxopropan-2-yl)-6-(cyclopentyloxy)naphthalene-2-sulfonamide trifluoroacetate] was tested. Which pIC50 did it give?
A: 5.00 to 6.00

Q: `NC1CC2CCC(C1)N2C(=O)[C@@H](NS(=O)(=O)c1ccc(OCC2CCCC2)cc1)C(F)(F)c1ccc2cc(Br)ccc2c1` (stereo partly drawn) [Compound 39-1, N-((2R)-3-(3-amino-8-azabicyclo[3.2.1]octan-8-yl)-1-(6-bromonaphthalen-2-yl)-1,1-difluoro-3-oxopropan-2-yl)-4-(cyclopentylmethoxy) benzenesulfonamide trifluoroacetate] was tested. Which pIC50 did it give?
A: 5.00 to 6.00

Q: With `NC1CC2CCC(C1)N2C(=O)[C@H](NS(=O)(=O)c1ccc(OCC2CCCC2)cc1)C(F)(F)c1ccc2cc(Br)ccc2c1` (stereo partly drawn) [Compound 39-2, N-((2S)-3-(3-amino-8-azabicyclo[3.2.1]octan-8-yl)-1-(6-bromonaphthalen-2-yl)-1,1-difluoro-3-oxopropan-2-yl)-4-(cyclopentylmethoxy)benzenesulfonamide trifluoroacetate] as the molecule, how does the pIC50 read?
A: 4.52 to 5.00

Q: How did the pIC50 turn out when `NC1CC2CCC(C1)N2C(=O)[C@@H](NS(=O)(=O)c1ccc(OCC2CCCCC2)cc1)C(F)(F)c1ccc2cc(Br)ccc2c1` (stereo partly drawn) [Compound 40-1, N-((2R)-3-(3-amino-8-azabicyclo[3.2.1]octan-8-yl)-1-(6-bromonaphthalen-2-yl)-1,1-difluoro-3-oxopropan-2-yl)-4-(cyclohexylmethoxy) benzenesulfonamide trifluoroacetate] was run?
A: 5.00 to 6.00

Q: With `NC1CC2CCC(C1)N2C(=O)[C@H](NS(=O)(=O)c1ccc(OCC2CCCCC2)cc1)C(F)(F)c1ccc2cc(Br)ccc2c1` (stereo partly drawn) [Compound 40-2, N-((2S)-3-(3-amino-8-azabicyclo[3.2.1]octan-8-yl)-1-(6-bromonaphthalen-2-yl)-1,1-difluoro-3-oxopropan-2-yl)-4-(cyclohexylmethoxy)benzenesulfonamide trifluoroacetate] as the molecule, how does the pIC50 read?
A: 4.52 to 5.00

Q: How did the pIC50 turn out when `NC1CC2CCC(C1)N2C(=O)[C@@H](NC(=O)[C@@H](O)c1ccc2cc(OC3CCCC3)ccc2c1)C(F)(F)c1ccc(Br)cc1` (stereo partly drawn) [Compound 41-3, (2S)—N-((2R)-3-(3-amino-8-azabicyclo[3.2.1]octan-8-yl)-1-(4-bromophenyl)-1,1-difluoro-3-oxopropan-2-yl)-2-(6-(cyclopentyloxy)naphthalen-2-yl)-2-hydroxyacetamide trifluoroacetate] was run?
A: 5.00 to 6.00

Q: How did the pIC50 turn out when `NC1CC2CCC(C1)N2C(=O)[C@H](NC(=O)[C@H](O)c1ccc2cc(OC3CCCC3)ccc2c1)C(F)(F)c1ccc(Br)cc1` (stereo partly drawn) [Compound 41-4, (2R)—N-((2S)-3-(3-amino-8-azabicyclo[3.2.1]octan-8-yl)-1-(4-bromophenyl)-1,1-difluoro-3-oxopropan-2-yl)-2-(6-(cyclopentyloxy)naphthalen-2-yl)-2-hydroxyacetamide trifluoroacetate] was run?
A: 4.00 to 4.52

Q: With `NC1CC2CCC(C1)N2C(=O)[C@@H](NC(=O)[C@H](O)c1ccc2cc(OC3CCCC3)ccc2c1)C(F)(F)c1ccc(Br)cc1` (stereo partly drawn) [Compound 41-5, (2R)—N-((2R)-3-(3-amino-8-azabicyclo[3.2.1]octan-8-yl)-1-(4-bromophenyl)-1,1-difluoro-3-oxopropan-2-yl)-2-(6-(cyclopentyloxy)naphthalen-2-yl)-2-hydroxyacetamide trifluoroacetate] as the molecule, how does the pIC50 read?
A: 4.52 to 5.00

Q: How did the pIC50 turn out when `NC1CC2CCC(C1)N2C(=O)[C@H](NC(=O)[C@@H](O)c1ccc2cc(OC3CCCC3)ccc2c1)C(F)(F)c1ccc(Br)cc1` (stereo partly drawn) [Compound 41-6, (2S)—N-((2S)-3-(3-amino-8-azabicyclo[3.2.1]octan-8-yl)-1-(4-bromophenyl)-1,1-difluoro-3-oxopropan-2-yl)-2-(6-(cyclopentyloxy)naphthalen-2-yl)-2-hydroxyacetamide trifluoroacetate] was run?
A: 4.00 to 4.52
